Data: patent US20250230193A1, “CYCLIC COMPOUND HAVING SELECTIVE KRAS INHIBITORY EFFECT ON HRAS AND NRAS” (CHUGAI SEIYAKU KABUSHIKI KAISHA, priority 2022, published 2025)
*1 amine or outer side, *2 acyl side, *3 side chain or, on linkers, in order; H or OH if unused. Where a SMILES comes first, the peptide text is derived from it. Bridges are numbered along the chain shown (N, C = ends). [ ]: non-standard residue; d: D form. The star is where a group is joined. hPhe(3-Cl-4-CF3) = N[C@@H](CCc1ccc(C(F)(F)F)c(Cl)c1)C(=O)O; NPrPhe(4-CF3) = CCCN[C@@H](Cc1ccc(C(F)(F)F)cc1)C(=O)O; NMeAbu(4,4,4-F3) = CN[C@@H](CC(F)(F)F)C(=O)O; X44 = CCCN([C@@H](Cc1ccccc1)C(=O)[*:2])[*:1]; NMeGly(cPent) = CN[C@H](C(=O)O)C1CCCC1; Pro(4,4-F2) = O=C(O)[C@@H]1CC(F)(F)CN1; NEtPhe = CCN[C@@H](Cc1ccccc1)C(=O)O; NMeGly(cBu) = CN[C@H](C(=O)O)C1CCC1; NMeF = CN[C@@H](Cc1ccccc1)C(=O)O; NMeD = CN[C@@H](CC(=O)O)C(=O)O; NMeL = CN[C@@H](CC(C)C)C(=O)O; NMeNva = CCC[C@H](NC)C(=O)O; NMeAbu = CC[C@H](NC)C(=O)O; Morpholide = C1CN(*)CCO1; NMeA = CN[C@@H](C)C(=O)O; Ac5c = NC1(C(=O)O)CCCC1; Aze = O=C(O)[C@@H]1CCN1; Ac4c = NC1(C(=O)O)CCC1; Sar = CNCC(=O)O

Tests used:
[1] = biological target: GDP-bound HRAS wild-type protein (Homo sapiens, UniProt P01112); test: Binding to HRAS by surface plasmon resonance (SPR), Single Cycle Kinetics; conditions: KD ratio HRAS/KRAS, SPR
[2] = biological target: GDP-bound NRAS wild-type protein (Homo sapiens, UniProt P01111); test: Binding to NRAS by surface plasmon resonance (SPR), Single Cycle Kinetics; conditions: KD ratio NRAS/KRAS, SPR
Chain of GDP-bound NRAS wild-type protein (P01111 whole entry): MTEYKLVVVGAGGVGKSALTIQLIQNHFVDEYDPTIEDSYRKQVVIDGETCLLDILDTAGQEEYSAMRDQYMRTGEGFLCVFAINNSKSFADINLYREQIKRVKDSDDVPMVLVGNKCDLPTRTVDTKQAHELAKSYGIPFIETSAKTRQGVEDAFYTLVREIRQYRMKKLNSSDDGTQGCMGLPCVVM

Chain of GDP-bound HRAS wild-type protein (P01112 whole entry): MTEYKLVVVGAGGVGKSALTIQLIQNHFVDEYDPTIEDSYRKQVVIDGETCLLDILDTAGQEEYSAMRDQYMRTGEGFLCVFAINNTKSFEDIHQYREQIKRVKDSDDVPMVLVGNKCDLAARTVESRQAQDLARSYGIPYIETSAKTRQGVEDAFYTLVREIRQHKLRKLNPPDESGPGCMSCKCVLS

CCCN1C(=O)[C@@H]2CCN2C(=O)[C@H](C)N(C)C(=O)[C@H]([C@@H](C)CC)NC(=O)[C@H](CC(F)(F)F)N(C)C(=O)C[C@@H](C(=O)N2CCOCC2)N(C)C(=O)[C@H](C2CCCC2)N(C)C(=O)C2(CCCC2)NC(=O)[C@@H]2CC(F)(F)CN2C(=O)[C@H](CCc2ccc(C(F)(F)F)c(Cl)c2)NC(=O)CN(C)C(=O)[C@@H]1Cc1ccc(C(F)(F)F)cc1 [PP0203] ([NMeAbu(4,4,4-F3)]I[NMeA][Aze][NPrPhe(4-CF3)][Sar][hPhe(3-Cl-4-CF3)][Pro(4,4-F2)][Ac5c][NMeGly(cPent)][NMeD]-Morpholide; lactam N-11)
HRAS/KRAS (ratio of KD for GDP-bound HRAS wild-type to KD for KRAS) [1]: C (A compound having a KD ratio of 0.1 or more and less than 3 is denoted as C)
NRAS/KRAS (ratio of KD for GDP-bound NRAS wild-type to KD for KRAS) [2]: C (A compound having a KD ratio of 0.1 or more and less than 3 is denoted as C)

CCCN1C(=O)[C@@H]2CCN2C(=O)[C@H](C)N(C)C(=O)[C@H]([C@@H](C)CC)NC(=O)[C@H](C2CCC2)N(C)C(=O)C[C@@H](C(=O)N2CCOCC2)N(C)C(=O)[C@H](C2CCCC2)N(C)C(=O)C2(CCCC2)NC(=O)[C@@H]2CC(F)(F)CN2C(=O)[C@H](CCc2ccc(C(F)(F)F)c(Cl)c2)NC(=O)CN(C)C(=O)[C@@H]1Cc1ccc(C(F)(F)F)cc1 [PP0204] ([NMeGly(cBu)]I[NMeA][Aze][NPrPhe(4-CF3)][Sar][hPhe(3-Cl-4-CF3)][Pro(4,4-F2)][Ac5c][NMeGly(cPent)][NMeD]-Morpholide; lactam N-11)
HRAS/KRAS (ratio of KD for GDP-bound HRAS wild-type to KD for KRAS) [1]: C (A compound having a KD ratio of 0.1 or more and less than 3 is denoted as C)
NRAS/KRAS (ratio of KD for GDP-bound NRAS wild-type to KD for KRAS) [2]: C (A compound having a KD ratio of 0.1 or more and less than 3 is denoted as C)

CCC[C@H]1C(=O)N[C@@H]([C@@H](C)CC)C(=O)N(C)[C@@H](C)C(=O)N2CC[C@H]2C(=O)N(CCC)[C@@H](Cc2ccc(C(F)(F)F)cc2)C(=O)N(C)CC(=O)N[C@@H](CCc2ccc(C(F)(F)F)c(Cl)c2)C(=O)N2CC(F)(F)C[C@H]2C(=O)NC2(CCCC2)C(=O)N(C)[C@@H](C2CCCC2)C(=O)N(C)[C@H](C(=O)N2CCOCC2)CC(=O)N1C [PP0205] ([NMeNva]I[NMeA][Aze][NPrPhe(4-CF3)][Sar][hPhe(3-Cl-4-CF3)][Pro(4,4-F2)][Ac5c][NMeGly(cPent)][NMeD]-Morpholide; lactam N-11)
HRAS/KRAS (ratio of KD for GDP-bound HRAS wild-type to KD for KRAS) [1]: C (A compound having a KD ratio of 0.1 or more and less than 3 is denoted as C)
NRAS/KRAS (ratio of KD for GDP-bound NRAS wild-type to KD for KRAS) [2]: C (A compound having a KD ratio of 0.1 or more and less than 3 is denoted as C)

CCCN1C(=O)[C@@H]2CCN2C(=O)[C@H](C)N(C)C(=O)[C@H]([C@@H](C)CC)NC(=O)[C@H](CC)N(C)C(=O)C[C@@H](C(=O)N2CCOCC2)N(C)C(=O)[C@H](C2CCCC2)N(C)C(=O)C2(CCCC2)NC(=O)[C@@H]2CC(F)(F)CN2C(=O)[C@H](CCc2ccc(C(F)(F)F)c(Cl)c2)NC(=O)CN(C)C(=O)[C@@H]1Cc1ccc(C(F)(F)F)cc1 [PP0206] ([NMeAbu]I[NMeA][Aze][NPrPhe(4-CF3)][Sar][hPhe(3-Cl-4-CF3)][Pro(4,4-F2)][Ac5c][NMeGly(cPent)][NMeD]-Morpholide; lactam N-11)
HRAS/KRAS (ratio of KD for GDP-bound HRAS wild-type to KD for KRAS) [1]: B (a compound having 3 or more and less than 10 is denoted as B)
NRAS/KRAS (ratio of KD for GDP-bound NRAS wild-type to KD for KRAS) [2]: C (A compound having a KD ratio of 0.1 or more and less than 3 is denoted as C)

CCCN1C(=O)CN(C)C(=O)CN(C)C(=O)[C@H]([C@@H](C)CC)NC(=O)[C@H](CC(C)C)N(C)C(=O)C[C@@H](C(=O)N2CCOCC2)N(C)C(=O)[C@H](C2CCCC2)N(C)C(=O)C2(CCC2)NC(=O)[C@@H]2CC(F)(F)CN2C(=O)[C@H](CCc2ccc(C(F)(F)F)c(Cl)c2)NC(=O)CN(C)C(=O)[C@@H]1Cc1ccc(C(F)(F)F)cc1 [PP0207] ([NMeL]I[Sar][Sar][NPrPhe(4-CF3)][Sar][hPhe(3-Cl-4-CF3)][Pro(4,4-F2)][Ac4c][NMeGly(cPent)][NMeD]-Morpholide; lactam N-11)
HRAS/KRAS (ratio of KD for GDP-bound HRAS wild-type to KD for KRAS) [1]: C (A compound having a KD ratio of 0.1 or more and less than 3 is denoted as C)
NRAS/KRAS (ratio of KD for GDP-bound NRAS wild-type to KD for KRAS) [2]: B (a compound having 3 or more and less than 10 is denoted as B)

CCCN1C(=O)[C@@H]2CCN2C(=O)[C@H](C)N(C)C(=O)[C@H]([C@@H](C)CC)NC(=O)[C@H](CC(C)C)N(C)C(=O)C[C@@H](C(=O)N2CCOCC2)N(C)C(=O)[C@H](C2CCCC2)N(C)C(=O)C2(CCC2)NC(=O)[C@@H]2CC(F)(F)CN2C(=O)[C@H](CCc2ccc(C(F)(F)F)c(Cl)c2)NC(=O)CN(C)C(=O)[C@@H]1Cc1ccc(C(F)(F)F)cc1 [PP0208] ([NMeL]I[NMeA][Aze][NPrPhe(4-CF3)][Sar][hPhe(3-Cl-4-CF3)][Pro(4,4-F2)][Ac4c][NMeGly(cPent)][NMeD]-Morpholide; lactam N-11)
HRAS/KRAS (ratio of KD for GDP-bound HRAS wild-type to KD for KRAS) [1]: C (A compound having a KD ratio of 0.1 or more and less than 3 is denoted as C)
NRAS/KRAS (ratio of KD for GDP-bound NRAS wild-type to KD for KRAS) [2]: C (A compound having a KD ratio of 0.1 or more and less than 3 is denoted as C)

CCCN1C(=O)[C@@H]2CCN2C(=O)[C@H](Cc2ccccc2)N(C)C(=O)[C@H]([C@@H](C)CC)NC(=O)[C@H](CC(C)C)N(C)C(=O)C[C@@H](C(=O)N2CCOCC2)N(C)C(=O)[C@H](C2CCCC2)N(C)C(=O)C2(CCCC2)NC(=O)[C@@H]2CCCN2C(=O)[C@H](CCc2ccc(C(F)(F)F)c(Cl)c2)NC(=O)CN(C)C(=O)[C@@H]1Cc1ccc(C(F)(F)F)cc1 [PP0209] ([NMeL]I[NMeF][Aze][NPrPhe(4-CF3)][Sar][hPhe(3-Cl-4-CF3)]P[Ac5c][NMeGly(cPent)][NMeD]-Morpholide; lactam N-11)
HRAS/KRAS (ratio of KD for GDP-bound HRAS wild-type to KD for KRAS) [1]: C (A compound having a KD ratio of 0.1 or more and less than 3 is denoted as C)
NRAS/KRAS (ratio of KD for GDP-bound NRAS wild-type to KD for KRAS) [2]: C (A compound having a KD ratio of 0.1 or more and less than 3 is denoted as C)

CC[C@H](C)[C@@H]1NC(=O)[C@H](CC(C)C)N(C)C(=O)C[C@@H](C(=O)N2CCOCC2)N(C)C(=O)[C@H](C2CCCC2)N(C)C(=O)C2(CCCC2)NC(=O)[C@@H]2CCCN2C(=O)[C@H](CCc2ccc(C(F)(F)F)c(Cl)c2)NC(=O)CN(C)C(=O)[C@H](Cc2ccccc2)N(CC)C(=O)CN(C)C(=O)CN(C)C1=O [PP0210] ([NMeL]I[Sar][Sar][NEtPhe][Sar][hPhe(3-Cl-4-CF3)]P[Ac5c][NMeGly(cPent)][NMeD]-Morpholide; lactam N-11)
HRAS/KRAS (ratio of KD for GDP-bound HRAS wild-type to KD for KRAS) [1]: C (A compound having a KD ratio of 0.1 or more and less than 3 is denoted as C)
NRAS/KRAS (ratio of KD for GDP-bound NRAS wild-type to KD for KRAS) [2]: C (A compound having a KD ratio of 0.1 or more and less than 3 is denoted as C)

CCCN1C(=O)CN(C)C(=O)CN(C)C(=O)[C@H]([C@@H](C)CC)NC(=O)[C@H](CC(C)C)N(C)C(=O)C[C@@H](C(=O)N2CCOCC2)N(C)C(=O)[C@H](C2CCCC2)N(C)C(=O)C2(CCCC2)NC(=O)[C@@H]2CCCN2C(=O)[C@H](CCc2ccc(C(F)(F)F)c(Cl)c2)NC(=O)CN(C)C(=O)[C@@H]1Cc1ccccc1 [PP0211] ([NMeL]I[Sar][Sar][X44][Sar][hPhe(3-Cl-4-CF3)]P[Ac5c][NMeGly(cPent)][NMeD]-Morpholide; lactam N-11)
HRAS/KRAS (ratio of KD for GDP-bound HRAS wild-type to KD for KRAS) [1]: C (A compound having a KD ratio of 0.1 or more and less than 3 is denoted as C)
NRAS/KRAS (ratio of KD for GDP-bound NRAS wild-type to KD for KRAS) [2]: B (a compound having 3 or more and less than 10 is denoted as B)
